Test [1] relates to Nakaseomyces glabratus. The test can be described thus: Minimum inhibitory concentration required for antifungal activity against Candida glabrata DSM 6425 strain. In kind it is functional.
Test [2] deals with Candida albicans. The test can be described thus: Minimum fungicidal concentration required for antifungal activity against Candida albicans ATCC 10231 strain. In kind it is functional.
Test [3] concerns Nakaseomyces glabratus. The test can be described thus: Minimum fungicidal concentration required for antifungal activity against Candida glabrata DSM 6425 strain. It counts as functional.
Test [4] concerns Candida tropicalis. The test can be described thus: Minimum fungicidal concentration required for antifungal activity against Candida tropicalis DSM 1346 strain. It counts as functional.
Test [5] relates to Candida tropicalis. The test is described as follows: Minimum inhibitory concentration required for antifungal activity against Candida tropicalis DSM 1346 strain. It counts as functional.
Test [6] concerns Cryptococcus neoformans. The test is described as follows: Minimum inhibitory concentration required for antifungal activity against Cryptococcus neoformans DSM 70219 strain. In kind it is functional.
In test [7] the test system is Candida albicans. The test can be described thus: Minimum inhibitory concentration required for antifungal activity against Candida albicans ATCC 10231 strain. In kind it is functional.
Test [8] relates to Cryptococcus neoformans. The test is described as follows: Minimum fungicidal concentration required for antifungal activity against Cryptococcus neoformans DSM 70219 strain. It counts as functional.
The subject of test [9] is Pichia kudriavzevii. The test is described as follows: Minimum fungicidal concentration required for antifungal activity against Issatchenkia orientalis DSM 6128 strain. In kind it is functional.
For test [10], the system named is Pichia kudriavzevii. The test can be described thus: Minimum inhibitory concentration required for antifungal activity against Issatchenkia orientalis DSM 6128 strain. It counts as functional.
The nature of test [11]: Ratio of MFC99/MIC for antifungal activity against Candida albicans ATCC 10231 strain was determined. In kind it is functional.
Test [12] can be described thus: Ratio of MFC99/MIC for antifungal activity against Candida glabrata DSM 6425 strain was determined. In kind it is functional.
A short description of test [13]: Ratio of MFC99/MIC for antifungal activity against Candida tropicalis DSM 1346 strain was determined. In kind it is functional.
Test [14] is described as follows: Ratio of MFC99/MIC for antifungal activity against Cryptococcus neoformans DSM 70219 strain was determined. It counts as functional.
Test [15] in a line: Ratio of MFC99/MIC for antifungal activity against Issatchenkia orientalis DSM 6128 strain was determined. In kind it is functional.
Test [16] has as its system Escherichia coli. The test is described as follows: Antibacterial activity against gram-negative bacteria Escherichia coli ATCC 25922; No effect. In kind it is functional, organism-based.
Test [17] concerns Enterococcus faecalis. The test is described as follows: Antibacterial activity against gram-positive bacteria Enterococcus faecalis ATCC 29212; No effect. In kind it is functional, organism-based.
The subject of test [18] is Klebsiella pneumoniae. The test is described as follows: Antibacterial activity against gram-negative bacteria K. pneumoniae; No effect. It counts as functional, organism-based.
In test [19] the test system is Listeria monocytogenes. The test can be described thus: Antibacterial activity against gram-positive bacteria Listeria monocytogenes CIP 82110T; No effect. It counts as functional, organism-based.
Test [20] has as its system Proteus mirabilis. The test is described as follows: Antibacterial activity against gram-negative bacteria Proteus mirabilis CIP 1031811; No effect. In kind it is functional, organism-based.
Test [21] deals with Pseudomonas aeruginosa. The test is described as follows: Antibacterial activity against gram-negative bacteria Pseudomonas aeruginosa ATCC 27853; No effect. In kind it is functional, organism-based.
For test [22], the system named is Salmonella typhimurium. The test can be described thus: Antibacterial activity against gram-negative bacteria Salmonella ser. Typhimurium; No effect. As to conditions: Salmonella enterica subsp. enterica serovar Typhimurium. It counts as functional, organism-based.
Test [23] has as its system Staphylococcus aureus. The test can be described thus: Antibacterial activity against gram-positive bacteria Staphylococcus aureus ATCC 9144; No effect. It counts as functional, organism-based.
For test [24], the system named is Streptococcus pyogenes. The test is described as follows: Antibacterial activity against gram-positive bacteria Streptococcus pyogenes ATCC 19165; No effect. In kind it is functional, organism-based.
Test [25] concerns Salmonella enterica. The test can be described thus: Antibacterial activity against gram-negative bacteria S. choleraesuis; No effect. It counts as functional, organism-based.

Broadly, the MIC is the lowest concentration found to suppress growth. Lower therefore signals greater potency.

The structures appear in SMILES notation. Values after ≈ are worked out from the molar mass of the structure shown. Active and inactive are the calls of the source. The rule behind the calls is not given here.

In the case of `COc1ccc(/N=c2\ssnc2Cl)cc1`, the MIC in test [1] is 16 mg/L (≈ 61.8 µM); in test [5] it was 16 mg/L (≈ 61.8 µM); in test [6], 8 mg/L (≈ 30.9 µM); in [7], 16 mg/L (≈ 61.8 µM); in test [10], 16 mg/L (≈ 61.8 µM). Further, the MFC99 in test [2] worked out at 16 mg/L (≈ 61.8 µM); in test [3], 16 mg/L (≈ 61.8 µM); in [4] it was 16 mg/L (≈ 61.8 µM); in test [8], 8 mg/L (≈ 30.9 µM); in test [9], 16 mg/L (≈ 61.8 µM). For the same compound, the Ratio in test [11], in test [12], in test [13], in [14] and in test [15] was 1 each time.
On to `COc1ccc(/N=c2\ssnc2Cl)cc1OC`, for which the MIC in test [1], in test [5], in test [6], in test [7] and in [10] was 16 mg/L (≈ 55.4 µM) throughout. The MFC99 is 16 mg/L (≈ 55.4 µM) in test [2]; 16 mg/L (≈ 55.4 µM) in [3]; 32 mg/L (≈ 111 µM) in test [4]; 32 mg/L (≈ 111 µM) in test [8]; 32 mg/L (≈ 111 µM) in test [9]. Moreover, the Ratio in [11] turned out to be 1; in test [12], 1; in test [13], 2; in test [14], 2; in test [15] it was 2.
`COc1cc(C#N)c(/N=c2\ssnc2Cl)cc1OC`: the MIC in test [1] came out at 32 mg/L (≈ 102 µM); in [5], 48 mg/L (≈ 153 µM); in test [6], 32 mg/L (≈ 102 µM); in test [7], 32 mg/L (≈ 102 µM); in test [10], 32 mg/L (≈ 102 µM). For the same compound, the MFC99 in test [2] was 32 mg/L (≈ 102 µM); in [3] it was 48 mg/L (≈ 153 µM); in [4] it was greater than 48 mg/L; in test [8] it was 32 mg/L (≈ 102 µM); in [9], 48 mg/L (≈ 153 µM). Moreover, the Ratio was 1 in [11], 1.5 in test [12], 1 in test [14] and 1.5 in [15].
Regarding `COc1cc(/N=c2\ssnc2Cl)cc(OC)c1OC`, the MIC in test [1], in [5], in test [6], in [7] and in [10] was 16 mg/L (≈ 50.2 µM) throughout. Besides, the MFC99 was 16 mg/L (≈ 50.2 µM) in [2]; 16 mg/L (≈ 50.2 µM) in test [3]; 32 mg/L (≈ 100 µM) in test [4]; 32 mg/L (≈ 100 µM) in test [8]; 32 mg/L (≈ 100 µM) in [9]. Also, the Ratio is reported as 1 in [11]; 1 in [12]; 2 in test [13]; 2 in test [14]; 2 in test [15].
On to `CCSc1nc(C#N)nc2cc(OC)c(OC)cc12`, for which the result in test [16], in test [17], in [18], in [19], in [20] and in test [21] was inactive. Further, the result in test [22], in [23], in [24] and in [25] was inactive.
On to `Nc1nc(=O)[nH]cc1F` [FLUCYTOSINE], for which the MIC in [1] is 0.05 mg/L (≈ 0.387 µM); in test [5], 0.1 mg/L (≈ 0.775 µM); in [6] it was 2 mg/L (≈ 15.5 µM); in test [7] it was 0.13 mg/L (≈ 1.01 µM); in test [10], 16 mg/L (≈ 124 µM). The MFC99 was 4 mg/L (≈ 31 µM) in test [2]; 0.25 mg/L (≈ 1.94 µM) in test [3]; 0.25 mg/L (≈ 1.94 µM) in [4]; greater than 128 mg/L in [8]; 64 mg/L (≈ 496 µM) in [9]. For the same compound, the Ratio is 5 in [12], 5 in test [13], greater than 64 in [14] and 4 in test [15].
In the case of `N#Cc1nc2cc(Cl)ccc2c(=O)s1`, the outcome in [16], in test [17], in [18], in test [19], in test [20] and in test [21] was inactive. Moreover, the result in [22], in test [23], in test [24] and in [25] was inactive.
As to `Clc1nss/c1=N\c1ccccc1`, the minimum inhibitory concentration (MIC) in test [1] worked out at 16 mg/L (≈ 70 µM); in test [5], 16 mg/L (≈ 70 µM); in test [6] it was 8 mg/L (≈ 35 µM); in test [7], 16 mg/L (≈ 70 µM); in test [10] it was 16 mg/L (≈ 70 µM). The MFC99 in test [2] turned out to be 16 mg/L (≈ 70 µM); in [3], 16 mg/L (≈ 70 µM); in [4], 16 mg/L (≈ 70 µM); in test [8], 8 mg/L (≈ 35 µM); in test [9], 16 mg/L (≈ 70 µM). Further, the Ratio in [11], in test [12], in test [13], in test [14] and in test [15] was 1 each time.
`N#Cc1nc2cc(Cl)ccc2c(=O)o1`: the result in test [16], in test [17], in test [18], in [19], in test [20] and in [21] was inactive. Also, the result in test [22], in test [23], in [24] and in test [25] was inactive.
For `Clc1nss/c1=N\c1ccc2c(c1)OCCO2`, the MIC in test [1] is 16 mg/L (≈ 55.8 µM); in test [5] it was 48 mg/L (≈ 167 µM); in test [6], 16 mg/L (≈ 55.8 µM); in [7], 32 mg/L (≈ 112 µM); in test [10], 48 mg/L (≈ 167 µM). The MFC99 in test [2] was 48 mg/L (≈ 167 µM); in test [3], 48 mg/L (≈ 167 µM); in [4], greater than 48 mg/L; in [8], 16 mg/L (≈ 55.8 µM); in test [9] it was greater than 48 mg/L. Also, the Ratio is reported as 1.5 in test [11], 3 in [12] and 1 in test [14].
As for `C[C@@H]1[C@H](O)[C@@H](C)/C=C/C=C/C=C/C=C/C=C/C=C/C=C/[C@H](O[C@@H]2O[C@H](C)[C@@H](O)[C@H](N)[C@@H]2O)C[C@@H]2O[C@](O)(C[C@@H](O)C[C@@H](O)[C@H](O)CC[C@@H](O)C[C@@H](O)CC(=O)O[C@H]1C)C[C@H](O)[C@H]2C(=O)O` [AMPHOTERICIN B], the MIC stood at 1 mg/L (≈ 1.08 µM) in test [1]; 1 mg/L (≈ 1.08 µM) in test [5]; 0.13 mg/L (≈ 0.141 µM) in test [6]; 0.25 mg/L (≈ 0.271 µM) in test [7]; 0.5 mg/L (≈ 0.541 µM) in test [10]. The MFC99 in test [2] came to 0.5 mg/L (≈ 0.541 µM); in test [3], 2 mg/L (≈ 2.16 µM); in test [4], 2 mg/L (≈ 2.16 µM); in [8] it was 0.5 mg/L (≈ 0.541 µM); in [9] it was 1 mg/L (≈ 1.08 µM). Besides, the Ratio in [11] is 2; in [12], 2; in test [13], 2; in test [14], 3.8; in [15], 2.
For `COC(=O)c1cc(OC)c(OC)cc1/N=c1\ssnc1Cl`, the MIC in test [1] is 16 mg/L (≈ 46.1 µM); in test [5], 48 mg/L (≈ 138 µM); in test [6], 32 mg/L (≈ 92.3 µM); in [7], 32 mg/L (≈ 92.3 µM); in test [10], 32 mg/L (≈ 92.3 µM). For the same compound, the MFC99 in test [2] is 48 mg/L (≈ 138 µM); in [3], 48 mg/L (≈ 138 µM); in test [4], greater than 48 mg/L; in [8], 48 mg/L (≈ 138 µM); in [9], 48 mg/L (≈ 138 µM). Moreover, the Ratio came to 1.5 in [11], 3 in test [12], 1.5 in [14] and 1.5 in test [15].
Turning to `CCCCOc1nc(C#N)nc2cc(OC)c(OC)cc12`, the result in [16], in [17], in [18], in [19], in test [20] and in test [21] was inactive. The result in test [22], in test [23], in test [24] and in test [25] was inactive.
For `CCOc1nc(C#N)nc2cc(OC)c(OC)cc12`, the outcome in test [16], in [17], in test [18], in [19], in test [20] and in test [21] was inactive. The result in test [22], in test [23], in test [24] and in test [25] was inactive.

The values are drawn from ChEMBL document CHEMBL1129179, “Antimicrobial evaluation of 3,1-benzoxazin-4-ones, 3,1-benzothiazin-4-ones, 4-alkoxyquinazolin-2-carbonitriles and N-arylimino-1,2,3-dithiazoles” (1996).
